Here are results for two compounds from patent publication US20130150455A1, “METHOD FOR TREATING MECHANICAL ALLODYNIA COMPRISING ADMINISTRATION OF EUGENOL” (SNU R&DB FOUNDATION, priority 2011, published 2013).

pIC50: −log10 of the molar value. Entries after “also recorded” stand apart in the source; their conditions may differ.

One experiment deals with injured nerve fibers. The following applies: in vivo; cited from earlier work.
The next experiment has as its system Ih conductance. The following applies: cited from earlier work.
Experiment [1] has as its system ION-CCI rats. The experiment can be described thus: Mechanical allodynia, air-puff threshold head withdrawal test. The format is in vivo, rat. The protocol: (§1) All surgical and experimental procedures were reviewed and approved by the Institutional Animal Care and Use Committee at the School of Dentistry, Seoul National University. Animal treatments were performed in strict accordance with the ethical guidelines of the International Association for the Study of Pain for the investigations of experimental pain in conscious animals [Zimmermann, M., Pain, 1983, 16: 109-110], and the National Institute of Health Guide for the Care and Use of Laboratory Animals. Behavioral tests were carried out on male Sprague Dawley rats (OrientBio, Sungnam, Korea) weighing 200-250 g. The rats were maintained in a temperature-controlled room with a 12/12-h light/dark cycle and fed food and water ad libitum. The animals were allowed to habituate to the housing facilities for 1 week before the experiments.
(§2) Surgical procedures were performed under 0.5 mL/kg (i.m.) of a mixture of equal volumes of ketamine (100 mg/mL) and xylazine (20 mg/mL) anesthesia. Under anesthesia, a chronic constriction injury of the infraorbital nerve (ION-CCI) was performed from the original description of Imamura et al. [Imamura, Y. et al., Exp. Brain Res., 1997, 116: 97-103]. A 1-cm-long incision was made along the gingivobuccal margin. The incision was begun proximal to the first molar. Approximately 0.5 cm of the ION was separated from the adhering tissue, and 2 ligatures (5-0 chromic gut) were tied loosely around it. The incision was sutured at 3 points with 4-0 silk. The sham operation was performed without ligation of the infraorbital nerve.
On postoperative 7 day, ION-CCI rats were placed in customized observation cages that were then placed in a darkened and noise-free room to conduct behavioral observations. The animals were acclimated for at least 30 min. Mechanical allodynia was determined as previously described [Ahn, D. K. et al., Pain, 2009, 146: 114-120], by observing withdrawal behavior, produced by 10 successive trials of constant air-puff pressure (4-s duration, 10-s intervals) in freely moving rats. The intensity and intervals of the air-puff pressure were controlled with a pneumatic pump module (BH2 system, Harvard Apparatus, Holliston, Mass.). The air puffs were applied through a 26-gauge metal tube (length, 10 cm) located 1 cm from the skin at a 90° angle. Thresholds were determined through the air-puff pressure at which each rat withdrew its head in 50% of the trials. The cutoff pressure for the air puffs was 40 psi. […] After eugenol (1 μg/30 μL, 5 μg/30 μL or 10 μg/30 μL; 200 μM, 1 mM, or 2 mM, respectively) was administered subcutaneously into the vibrissa pad, air-puff thresholds were determined at 15 and 30 min, and at 1, 2, 3, 4, 5, 6, and 24 hr after eugenol injection. In the control group, 30 μL of the vehicle (30% DMSO/saline) was injected subcutaneously.

Experiment [2] has as its system voltage-gated sodium channels (VGSCs). The following applies: conventional concentration, equals 50 μg; cited from earlier work.
For the next experiment, the system named is TG neurons. The experiment can be described thus: Current-clamp action potential firing in TG neurons. The experiment is classed as cell-based, rat. The note with it: 200 μM. The protocol: TG neurons from 2- to 7-day-old neonatal rats or adult rats (200 to 300 g) were prepared as previously described [Fang, Z. et al., J. Biol. Chem., 2007, 282: 4757-4764]. Briefly, TG neurons prepared in 4° C. Hanks balanced salt solution (Welgene, Daegu, Korea) were incubated in 2 mL Hanks balanced salt solution containing 0.167% trypsin (Invitrogen, Carlsbad, Calif.) at 37° C. for 40 min. The cells were washed in DMEM and triturated with a flame-polished Pasteur pipette to separate cells and remove processes, and subsequently centrifuged (750 RPM, 5 min), resuspended and placed on 0.5 mg/mL poly-L-ornithine (Sigma, St. Louis, Mo.)-coated glass coverslips (12 mm in diameter). The cells were maintained at 37° C. in a […]/5% CO2 incubator.
Whole-cell recordings were made using patch electrodes (4 to 6 MΩ) pulled from borosilicate glass on a Brown-Flaming P-97 horizontal micropipette puller (Sutter Instruments, Novato, Calif.). Voltage- and current-clamp experiments were performed using an HEKA EPC9 amplifier and digitized using ITC16 and Pulse v8.54 software (both from HEKA, Lambrecht/Pfalz, Germany). […] Data were analyzed by Origin 6.0 software. […]
Ih was elicited by a 2 s pulse from a holding potential of −50 mV to −120 mV in 10 mV steps. […] The reversal potential of the eugenol-sensitive currents was determined by measuring the tail currents. […]

For experiment [3], the system named is ION-CCI rats. Kind of experiment: Thermal hyperalgesia, head withdrawal latency to radiant heat. The experiment is classed as in vivo, rat. As to the method:
as §1, §2
Thermal hyperalgesia was also determined as previously described [Ahn, D. K. et al., Pain, 2009, 146: 114-120; Park, C. K. et al., Pain, 2009, 144: 84-94]. Each rat was placed in a customized cylinder-type acrylic rodent restrainer (height 40 to 60 mm, length 70 to 120 mm). […] Each restrainer was placed in a darkened and noise-free room, and the animals were habituated for at least 30 min before the start of the experiment. After radiant heat was applied to the midregion of the left vibrissa pad, the head withdrawal latency was determined. The application of heat stimuli was performed using an infrared thermal stimulator (Infrared Diode Laser, LVI-808-10, LVI tech, Seoul, Korea). The power and current of the thermal stimulator were adjusted to 11 W and 18.1 A, respectively. The thermal stimuli produced stable withdrawal latencies of approximately 11 s for a 10-cm distance from the heat source to the vibrissa pad. […] After eugenol (10 μg/30 μL or 50 μg/30 μL; 2 mM or 10 mM, respectively) was administered subcutaneously into the vibrissa pad, the latencies of withdrawal responses were determined at 10, 20, 30, 40, 50, and 60 min and 24 h after eugenol injection. […]

Experiment [4] concerns hyperpolarization-activated current (Ih) in TG neurons (HCN channels). Kind of experiment: Whole-cell recordings of Ih in TG neurons. The experiment is classed as cell-based, rat.
For experiment [5], the system named is ION-CCI rats. The following applies: >50 μg; cited from earlier work.
The test system of experiment [6] is voltage-gated sodium channels (VGSCs). Kind of experiment: VGSC currents in TG neurons in normal bath solution. The format is cell-based, rat. The following applies: 200 μM, n=3. As to the method:
(B) The left figure represents the comparison of action potentials at an expanded time scale before and after exposure to eugenol (200 μM), and the Right figure represents a summary of the dV/dt analysis. (C) The left figure represents superimposed current traces before and during exposure to eugenol (200 μM) in the normal bath solution where inward currents result from VGSCs, and the right figure represents a summary of eugenol-induced VGSC currents inhibition (n=3).
Whole-cell recordings were made using patch electrodes (4 to 6 MΩ) pulled from borosilicate glass on a Brown-Flaming P-97 horizontal micropipette puller (Sutter Instruments, Novato, Calif.). Voltage- and current-clamp experiments were performed using an HEKA EPC9 amplifier and digitized using ITC16 and Pulse v8.54 software (both from HEKA, Lambrecht/Pfalz, Germany). Signals were filtered at 1 kHz and sampled at 3 kHz. Series resistance was typically less than 20 MΩ and was compensated by about 70 to 80%. Electrical recordings were performed at room temperature. The 3 M KCl agar bridge (Warner Instruments, Hamden, Conn.) is used to avoid high liquid junction potentials. Data were analyzed by Origin 6.0 software.
Extracellular solution containing 140 mM NaCl, 2 mM CaCl2, 1 mM MgCl2, 5 mM KCl, 10 mM HEPES, 10 mM D-glucose was adjusted to pH 7.4 with NaOH, 290 to 310 mOsm. […]

Setting [7] is: concentration lower than that which would inhibit VGSCs (50 μg; 10 mM).

As to `CCN(c1ccccc1)c1cc(=NC)n(C)c(C)n1.Cl` [ZD7288], in the experiment with injured nerve fibers, the pain behavior entry was “reversed” and the “spontaneous discharges in injured nerve fibers” value was “reversed”. Moreover, in the experiment on Ih conductance, the action potential duration entry was “prolonged” and the “repetitive firing during tetanic bursts” value is “diminished”.

Usually pIC50 stands for the IC50 on a negative log10 scale, so that one unit is a factor of ten. For the compound `C=CCc1ccc(O)c(OC)c1` [eugenol, 4-allyl-2-methoxyphenol], the air-puff thresholds result in the experiment with ION-CCI rats [1] (1 μg subcutaneous into vibrissa pad, 7 day ION-CCI) is given as “significantly enhanced”. Further, in the experiment with ION-CCI rats [1] (5 to 10 μg subcutaneous, cutoff 40 psi), the air-puff threshold entry is “reached the cutoff”. In addition, the onset of effect result in the experiment with ION-CCI rats [1] (FIG. 7B) is on record as “occurred immediately”. Besides, the “effect on mechanical allodynia” value in the experiment with ION-CCI rats [1] (setting [7]) is given as “ameliorating effect”. Besides, the “antiallodynic effects on mechanical allodynia” value in the experiment on ION-CCI rats [1] (subcutaneous 1 μg, 5 μg, 10 μg, n=6 per group, p<0.05) is listed as “significantly produced prolonged the antiallodynic effects”. For the same compound, the “concentration at which eugenol inhibits VGSCs” value in experiment [2] was 10 mM. Also, the “dV/dt of action potential” value in the experiment with TG neurons was “not changed”. Further, the “firing rates of action potentials” value in the experiment on TG neurons (50 pA depolarizing current injection, n=4) is reported as “reduced”. In addition, in the experiment on ION-CCI rats [3] (50 μg subcutaneous, n=6, p<0.05), the “thermal hyperalgesia / thermal hypersensitivity” value was “significantly reduced; also recorded: significantly inhibited”. For the same compound, the thermal hyperalgesia result in the experiment on ION-CCI rats [3] (<10 μg) is recorded as “not effective”. Further, in the experiment on ION-CCI rats [3] (setting [7]), the “effect on thermal hyperalgesia” value is reported as “no effect”. Besides, the thermal hypersensitivity result in the experiment with ION-CCI rats [3] (low dose 10 μg subcutaneous, n=6) is listed as “no effect”. For the same compound, the “eugenol-induced Ih inhibition with 8-Br-cAMP” value in experiment [4] (200 μM eugenol, 8-Br-cAMP (100 μM) in pipette solution, n=6) was determined as 17.5±3.7%. In addition, the “eugenol-induced Ih inhibition with Rp-cAMPs” value in experiment [4] (200 μM eugenol, Rp-cAMPs (100 μM), n=6) was 25.7±3.4%. For the same compound, in [4] (200 μM eugenol, Sp-cAMPs (100 μM), n=5), the “eugenol-induced Ih inhibition with Sp-cAMPS” value was determined as 20.1±3.1%. For the same compound, the “Ih inhibition after pretreatment with NEM” value in experiment [4] (200 μM eugenol, TG neurons pretreated 5 min with NEM (50 μM), n=8) came to 69.2±4.4%. The Ih inhibition is on record as 73.0±3.9% in [4] (200 μM, TG neurons of adult (naive) rats, n=11); 63.3±1.6% in experiment [4] (200 μM, TG neurons of neonatal rats, n=27); 67.5±4.0% in [4] (200 μM, injured DiI-labeled TG neurons of ION-CCI rats, n=7). Further, the “reversibility of Ih inhibition” value in experiment [4] (200 μM, sequential application, FIG. 2A) is “reversible and repetitively reproduced”. Besides, the “maximal Ih amplitude” value in experiment [4] (200 μM, step pulses −50 to −120 mV, full range of voltages) is given as “reduced”. For the same compound, the “Eugenol-induced Ih inhibition” value in experiment [4] (200 μM, without NEM, n=8, FIG. 6A) is listed as 66.1±1.8%. Moreover, in [4] (500 μM and 1 mM, FIG. 3), the Ih block result is “complete Ih block”. For the same compound, the “mean Vrev (reversal potential of Ih)” value in [4] (after application of 200 μM eugenol, n=4, control −29.4±2.3 mV) is on record as −25.8±1.4 mV. For the same compound, the pIC50 in [4] (read-out: IC50 of Ih inhibition, TG neurons, dose dependent, FIG. 3) was 3.80. Also, the “thermal pain / thermal hyperalgesia, previous study” value with ION-CCI rats [5] is “blocks thermal pain in a dose-dependent manner; also recorded: ameliorated thermal hyperalgesia”. Moreover, in experiment [6], the VGSC currents result is recorded as “not affected”.
